According to paper PMC6028563, “Probing Substituents in the 1- and 3-Position: Tetrahydropyrazino-Annelated Water-Soluble Xanthine Derivatives as Multi-Target Drugs With Potent Adenosine Receptor Antagonistic Activity” (Frontiers in Chemistry, 2018):
In brackets after ≈: the same amount, converted by molar mass. Read-outs that look alike come from different tables or passages of the source. Blank lines part the entries; values can stand above or below the molecule they belong to.

Assays:
rat A2A AR = molecular target: T1, rat A2A AR (Rattus norvegicus, UniProt P30543); assay: Radioligand binding assay at rat A2A AR (rat brain striatum) vs. [^3H]MSX-2; conditions: rat (r)
T1 construct: A2A ARs of rat brain striatal membrane preparations; from tissue; host or cells: rat brain striatum membranes
In short: (§1)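 Membranes of CHO cells recombinantly expressing single human AR subtypes served for human assays, A2B competed against [^3H]PSB-603. Native rat tissue was used otherwise: cortical membranes with [^3H]CCPA for A1, striatal membranes with [^3H]MSX-2 for A2A.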

human A2B AR = molecular target: T2, human A2B AR (Homo sapiens, UniProt P29275); assay: Radioligand binding assay at human A2B AR vs. [^3H]PSB-603
T2 construct: expressed in transfected cells; host or cells: CHO cells
T2 sequence (P29275 1-332): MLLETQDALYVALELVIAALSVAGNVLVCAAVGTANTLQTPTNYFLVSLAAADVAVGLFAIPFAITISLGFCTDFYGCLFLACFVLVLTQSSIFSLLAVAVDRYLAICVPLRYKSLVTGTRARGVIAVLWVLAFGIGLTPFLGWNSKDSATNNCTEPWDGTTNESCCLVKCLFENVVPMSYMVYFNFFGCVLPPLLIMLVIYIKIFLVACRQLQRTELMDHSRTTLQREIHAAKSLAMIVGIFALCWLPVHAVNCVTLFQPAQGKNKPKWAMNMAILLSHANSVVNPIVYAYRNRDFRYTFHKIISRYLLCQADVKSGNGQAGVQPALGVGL
In short: as §1

rat A1 AR = molecular target: T3, rat A1 AR (Rattus norvegicus, UniProt P25099); assay: Radioligand binding assay at rat A1 AR (rat brain cortex) vs. [^3H]CCPA; conditions: rat (r); rat brain cortex; n = 3
T3 construct: A1 ARs of rat brain cortical membrane; from tissue; host or cells: rat brain cortex membranes
T3 sequence (P25099 1-326): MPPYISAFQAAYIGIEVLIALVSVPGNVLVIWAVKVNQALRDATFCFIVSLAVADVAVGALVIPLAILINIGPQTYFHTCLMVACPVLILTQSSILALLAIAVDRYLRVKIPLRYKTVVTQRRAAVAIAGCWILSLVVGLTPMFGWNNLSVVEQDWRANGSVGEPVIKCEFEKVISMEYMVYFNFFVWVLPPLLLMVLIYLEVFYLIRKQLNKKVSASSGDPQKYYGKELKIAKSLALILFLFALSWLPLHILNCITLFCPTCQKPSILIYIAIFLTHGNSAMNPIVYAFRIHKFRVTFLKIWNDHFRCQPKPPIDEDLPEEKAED
In short: as §1

[1] = Thermodynamic solubility measurements; assay type: physicochemical; conditions: thermodynamic from solid, thermodynamic solubility
Description: This is expected to facilitate dissolution in the stomach. Depending on the substitution pattern they may also be well soluble at higher pH values (Brunschweiger et al., [2014]). In the present study we measured thermodynamic solubility of only very few compounds exemplarily (14a-e, 14g, 15f,g) and confirmed their high solubility at pH 1 (see Table S1 in Supplementary Material). Most of these compounds were still soluble at pH 7.4. The best soluble derivative was the 3-ethyl-1-methyl-8-m-fluorobenzyl derivative 14g with solubilities of >1.5 g/L (4.2 mM) at pH 1, 50 mg/L (0.14 mM) at pH 4, and 40 mg/L ([…]) at pH 7.4.
Table S1. Solubility of selected compounds at three different pH values (in mg/mL).a
Compound pH 1 pH 4 pH 7.4
adetermined by thermodynamic solubility measurements.

recombinant human MAO-B [2] = molecular target: T4, recombinant human MAO-B (Homo sapiens, UniProt P27338); assay: Monoamine oxidase assay (Amplex Red), MAO-B; assay type: biochemical
T4 construct: purchased Sigma-Aldrich M7441; host or cells: baculovirus-infected insect cells
T4 sequence (P27338 1-520): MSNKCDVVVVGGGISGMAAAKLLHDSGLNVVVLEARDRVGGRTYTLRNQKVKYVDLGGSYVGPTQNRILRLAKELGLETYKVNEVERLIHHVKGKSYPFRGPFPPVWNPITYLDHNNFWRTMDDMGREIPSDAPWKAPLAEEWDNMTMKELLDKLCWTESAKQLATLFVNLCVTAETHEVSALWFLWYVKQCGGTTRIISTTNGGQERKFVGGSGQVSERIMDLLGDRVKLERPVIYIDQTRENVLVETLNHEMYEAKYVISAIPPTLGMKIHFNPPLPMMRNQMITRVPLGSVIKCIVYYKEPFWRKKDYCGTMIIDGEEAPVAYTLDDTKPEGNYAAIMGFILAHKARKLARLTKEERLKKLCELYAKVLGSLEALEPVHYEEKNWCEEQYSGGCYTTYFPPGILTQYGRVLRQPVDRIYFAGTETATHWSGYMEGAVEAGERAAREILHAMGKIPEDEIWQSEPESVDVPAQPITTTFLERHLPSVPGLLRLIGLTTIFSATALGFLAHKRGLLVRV
In short: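 Inhibition was measured with an Amplex Red monoamine oxidase assay, using human MAO-A and MAO-B produced recombinantly in baculovirus-infected insect cells. For rat MAO-B, liver mitochondria-enriched fractions from male Sprague Dawley rats served as enzyme source.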

human A1 AR [3] = molecular target: T5, human A1 AR (Homo sapiens, UniProt P30542); assay: Radioligand binding assay at human A1 AR vs. [^3H]CCPA; conditions: human (h); CHO cell membranes; n = 3
T5 construct: expressed in transfected cells; host or cells: CHO cells
T5 sequence (P30542 1-326): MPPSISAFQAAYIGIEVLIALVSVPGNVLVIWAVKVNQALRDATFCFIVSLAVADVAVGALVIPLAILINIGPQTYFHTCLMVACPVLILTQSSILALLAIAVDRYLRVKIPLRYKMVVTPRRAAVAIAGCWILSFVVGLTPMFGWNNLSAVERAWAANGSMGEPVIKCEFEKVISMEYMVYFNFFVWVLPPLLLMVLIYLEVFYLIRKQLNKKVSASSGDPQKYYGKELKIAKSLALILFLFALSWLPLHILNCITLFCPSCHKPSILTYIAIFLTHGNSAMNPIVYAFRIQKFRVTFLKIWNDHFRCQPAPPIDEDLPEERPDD
In short: as §1

human A3 AR = molecular target: T6, human A3 AR (Homo sapiens, UniProt P0DMS8); assay: Radioligand binding assay at human A3 AR vs. [^3H]PSB-11; conditions: CHO cell membranes, n = 2 (n = 3 where marked a), read-out: Ki ± SEM, A3 vs. [^3H]PSB-11
T6 construct: expressed in transfected cells; host or cells: CHO cells
T6 sequence (P0DMS8 1-318): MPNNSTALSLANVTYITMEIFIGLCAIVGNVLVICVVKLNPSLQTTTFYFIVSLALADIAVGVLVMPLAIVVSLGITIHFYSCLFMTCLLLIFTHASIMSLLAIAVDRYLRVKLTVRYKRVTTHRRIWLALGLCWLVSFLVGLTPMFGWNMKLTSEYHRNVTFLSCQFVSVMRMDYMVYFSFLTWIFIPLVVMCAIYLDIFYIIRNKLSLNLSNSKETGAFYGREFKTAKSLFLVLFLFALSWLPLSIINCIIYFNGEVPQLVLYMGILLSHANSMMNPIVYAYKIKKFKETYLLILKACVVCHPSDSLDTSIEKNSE
In short: as §1

human A1 AR [4] = molecular target: T5, human A1 AR; conditions: human (h); Figure 3 and introduction; ref Drabczynska et al., 2007; Koch et al., 2013; Brunschweiger et al., 2014, 2016; read-out: A1 (Ki); cited from earlier work
human A2A AR = molecular target: T7, human A2A AR (Homo sapiens, UniProt P29274); conditions: human (h); Figure 3 and introduction; ref Drabczynska et al., 2007; Koch et al., 2013; Brunschweiger et al., 2014, 2016; cited from earlier work
T7 construct: expressed in transfected cells; host or cells: CHO cells

recombinant human MAO-B [5] = molecular target: T4, recombinant human MAO-B; conditions: human (h); Figure 2 and introduction; ref Chen et al., 2002; Pretorius et al., 2008; Wang et al., 2017; Stössel et al., 2013; cited from earlier work

T1 sequence (P30543 whole entry): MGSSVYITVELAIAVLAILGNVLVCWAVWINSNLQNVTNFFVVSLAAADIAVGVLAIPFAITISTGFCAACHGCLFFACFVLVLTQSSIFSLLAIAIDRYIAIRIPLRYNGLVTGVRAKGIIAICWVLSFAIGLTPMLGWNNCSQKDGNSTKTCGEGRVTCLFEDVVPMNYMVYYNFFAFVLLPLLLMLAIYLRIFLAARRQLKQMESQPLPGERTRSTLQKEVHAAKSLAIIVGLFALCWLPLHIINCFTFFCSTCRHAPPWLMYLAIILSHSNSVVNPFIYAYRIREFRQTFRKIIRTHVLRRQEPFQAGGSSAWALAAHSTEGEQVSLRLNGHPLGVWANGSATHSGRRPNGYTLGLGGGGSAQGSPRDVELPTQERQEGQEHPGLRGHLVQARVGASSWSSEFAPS
T7 sequence (P29274 whole entry): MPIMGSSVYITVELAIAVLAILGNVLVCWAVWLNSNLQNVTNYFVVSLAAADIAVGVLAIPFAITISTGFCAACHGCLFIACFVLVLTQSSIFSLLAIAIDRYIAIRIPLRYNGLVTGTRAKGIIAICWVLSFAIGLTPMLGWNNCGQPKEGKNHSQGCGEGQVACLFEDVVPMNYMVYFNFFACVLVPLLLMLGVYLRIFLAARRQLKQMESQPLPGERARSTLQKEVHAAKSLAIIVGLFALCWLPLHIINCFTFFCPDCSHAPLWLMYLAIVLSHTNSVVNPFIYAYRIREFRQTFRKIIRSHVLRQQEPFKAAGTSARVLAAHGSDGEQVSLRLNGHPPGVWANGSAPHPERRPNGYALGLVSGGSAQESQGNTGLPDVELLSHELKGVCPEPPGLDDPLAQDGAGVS

% inhibition of radioligand binding at indicated concentration, A2A vs. [^3H]MSX-2 (rat A2A AR; at 1,000 nM): 32% | Ki (rat A2A AR; rat brain striatum, n = 3, read-out: Ki ± SEM, A2A vs. [^3H]MSX-2): > 1000 nM | Ki (human A2B AR; CHO cell membranes, n = 2 (n = 3 where marked a), read-out: Ki ± SEM, A2B vs. [^3H]PSB-603): > 1000 nM | inhibition at 1 µM (human A2B AR; at 1,000 nM, read-out: % inhibition of radioligand binding at indicated concentration, A2B vs. [^3H]PSB-603): 2% | Ki (rat A1 AR): 51.4 ± 14.7 nM | solubility ([1]; aqueous buffer, pH 4, read-out: Solubility, pH 4): 0.9 µg/mL (≈ 2.14 µM) | solubility ([1]; aqueous buffer, pH 7.4, read-out: Solubility, pH 7.4): 0.7 µg/mL (≈ 1.66 µM) | solubility ([1]; simulated gastric fluid, pH 1, read-out: Solubility, pH 1): 300 µg/mL (≈ 712 µM) | inhibition at 10 µM (recombinant human MAO-B [2]; at 10,000 nM (10 μM), read-out: % inhibition at indicated concentration, Human MAO-B): 41% | IC50 (recombinant human MAO-B [2]; n = 3, read-out: IC50 ± SEM, Human MAO-B): > 10000 nM | Ki (human A1 AR [3]): 129 ± 9 nM | Ki (human A3 AR): 4060 nM
Molecule: CCn1c(=O)c2c(nc3n2CCN(Cc2ccccc2C(F)(F)F)C3)n(CC)c1=O [Compound 15f, 1,3-diethyl-8-(2-(trifluoromethyl)benzyl)-6,7,8,9-tetrahydropyrazino[2,1-f]purine-2,4(1H,3H)-dione]

Molecule: 1,3-Dimethyl-6,7,8,9-tetrahydropyrazino[2,1-f ]purine-2,4(1H,3H)-dione [Compound 10c]
Ki (human A1 AR [4]): 116 nM | Ki (human A2A AR): 94 nM

Molecule: Cn1c(=O)c2c(nc(/C=C/C=C/c3cccc(Br)c3)n2C)n(C)c1=O [Compound 4]
IC50 (recombinant human MAO-B [5]): 37.9 nM
